From patent US12350473B2 (priority 2018, dated 2025)
Like-named read-outs stand apart in the source and are kept apart here.

Legend:
[1] = in vivo, cited from earlier work
[2] = tested on: quadriceps femoris muscle injection site; assay: Example 13: GLP local tolerance study of naloxone following intramuscular injection; type: in vivo, New Zealand White Rabbits; settings: for injection site findings: 7-day observation
Description: Mortality and clinical observations were recorded twice daily. […] On Day 8, the animals were euthanized and subject to a necropsy examination. A full tissue list was preserved, but only the test site and contralateral site in the other quadriceps femoris were processed for histopathological evaluation.

[3] = tested on: opioid overdose; assay: Examples 10-12: high dose naloxone injection in emergency room opioid overdose cases; type: in vivo, human
Description: (§1) A person is admitted to a local emergency room suffering from an opioid overdose. A high dose naloxone composition is administered by injection to the person.
as §1

[4] = tested on: morphine effects; settings: cited from earlier work
[5] = tested on: buprenorphine intravenous induced respiratory depression; settings: 5 mg and 10 mg naloxone intravenously; cited from earlier work
[6] = tested on: respiratory depression; settings: IV morphine […] reversed with naloxone 0.4 mg; cited from earlier work
[7] = in vivo; cited from earlier work
[8] = in vivo; cited from earlier work; remark: listed apart in the source

CN1CC[C@]23c4c5ccc(O)c4O[C@H]2[C@@H](O)C=C[C@H]3[C@H]1C5 [morphine]
analgesic onset ([1]; iv): 6 min | duration of action ([1]; iv): 96 min | duration of action [1]: Longer

C=CCN1CC[C@]23c4c5ccc(O)c4O[C@H]2C(=O)CC[C@@]3(O)[C@H]1C5 [naloxone]
erythema at injection site ([2]; males receiving 15 mg/animal, attributed to the shaving procedure): low incidence of slight erythema | histology: effect on the examined tissue ([2]; rabbits, 5 mg/0.5 mL three times (15 mg total dose), Day 8 necropsy): no evidence | injection site findings ([2]; rabbits, IM injection in 3 sites each 2 mg/0.4 mL (total 6 mg)): no injection site findings attributed to treatment | injection site findings ([2]; rabbits, IM injection in 3 sites each 5 mg/0.5 mL (total 15 mg)): no injection site findings attributed to treatment | outcome of opioid overdose ([3]; Example 10: person, 5 mg in a single injection): recovers from the overdose event | outcome of opioid overdose ([3]; Example 11: person, 10 mg in a single injection): recovers from the overdose event | outcome of opioid overdose ([3]; Example 12: person, 20 mg in a single injection): recovers from the overdose event | reversal of morphine effects at the 30 mg dose ([4]; 30 mg i.m. naloxone): no additional reversal | naloxone dose up to which reversal of the morphine effects was dose related ([4]; intra-muscular, 70 kg subject, morphine 18 or 30 mg/70 kg i.m.): up to 10 mg | reversal of opioid effects [5]: Complete reversal | return to severe respiratory depression after reversal [6]: ≤ 30 min | distribution half-life [7]: 4.7 min | elimination half-life (average) [7]: 1.08 h

CC(=O)Oc1ccc2c3c1O[C@H]1[C@@H](OC(C)=O)C=C[C@H]4[C@@H](C2)N(C)CC[C@@]341 [heroin]
half-life [8]: 3 to 7 h
